Data: patent US6225100A, “Arylsulfotransferase” (DCV, Inc., priority 1999, dated 2001)
Structures can show the parent of a compound that is named as a salt. Where two headings read alike, the source gives them in different places. Peptide text beside a SMILES is read from it.

Legend:
[1] = test system: AST from Clostridium innocuum strain 554WT; experiment: AST assay, sulfate acceptors (phenolic compounds, tyrosylpeptides) with p-nitrophenylsulfate as sulfate donor; format: biochemical; details: for Yield (%) of sulfated tyrosylpeptide: tyrosylpeptides as sulfate acceptors
[2] = test system: AST of Clostridium innocuum 554 ATCC 55803 (Strain 554WT); experiment: AST assay, sulfate donor substrate specificity with tyramine as sulfate acceptor; format: biochemical; details: for Activity (%) as sulfate donor: relative to p-nitrophenylsulfate designated as 100% activity, tyramine as sulfate acceptor; for specific activity as donor substrate: normalized to p-acetylphenylsulfate as donor baseline at 100% activity
Experimental: (§1) At each stage of purification, the AST activity was assayed by incubating the AST with 0.1 M Tris (pH 8.0), 5.0 mM p-nitrophenylsulfate (as aryl sulfate donor) and 2.5 mM tyramine (as sulfate acceptor). The reaction was incubated at 37° C. and terminated by addition of 1 N NaOH. The amount of p-nitrophenol formed during the reaction was determined by an absorbance reading at 405 nm. One unit of enzyme is equal to 1 mmol of p-nitrophenol formed per minute per milligram protein. Other aryl sulfate donors and phenolic acceptors were used at similar concentrations. Peptide acceptors were typically used in the 250-500 mM range. Formation of sulfated phenols and peptides was also quantitated via HPLC, using a 30% acetonitrile/70% water mobile phase. A UV detector was used to monitor peptides at 280 nm. Other wavelengths were used with various sulfated phenolic products and substrates as appropriate.
The AST assay was performed as described in Example 2 using each of the sulfate donors listed in Table 4, with tyramine as the sulfate acceptor in each case. […] Activity is shown as a percentage relative to the activity obtained with p-nitrophenylsulfate, which is designated as 100% activity.

Clostridium innocuum AST = experiment: Effectors of arylsulfotransferase activity; format: biochemical; details: no effect / inhibitory / stimulatory
Excerpt: The above-described physical and biochemical properties of a Clostridium innocuum AST of the present invention are summarized in Table 3.

[3] = test system: Eubacterium nodatum arylsulfotransferase; experiment: Sulfation of CCK-8 by Eubacterium nodatum enzyme; format: biochemical; details: under conditions similar to the prior art
[4] = test system: bacterial arylsulfotransferase; details: prior bacterial arylsulfotransferase; Kobashi et al., 1987; cited from earlier work
[5] = test system: Eubacterium A-44 arylsulfotransferase; details: p-acetylphenylsulfate as donor baseline at 100% activity; Kobashi et al., 1987; cited from earlier work
[6] = test system: AST of Clostridium innocuum 554 ATCC 55803 (Strain 554WT); experiment: Apparent Km from double reciprocal plots; format: biochemical
Experimental: as §1
In this AST assay, various concentrations of p-nitrophenylsulfate (as a sulfate donor) and of tyramine (as a sulfate acceptor) were plotted against the corresponding enzyme reaction rate in a double reciprocal plots (FIG. 4). AST activity was determined as described previously.

[7] = p-nitrophenylsulfate as sulfate donor
[8] = phenolic compounds, p-nitrophenylsulfate as sulfate donor, tyramine 100

## CSCC[C@H](NC(=O)[C@H](Cc1c[nH]c2ccccc12)NC(=O)CNC(=O)[C@@H](NC(=O)[C@H](Cc1ccc(O)cc1)NC(=O)[C@H](CC(=O)O)NC(=O)[C@H](CCC(N)=O)NC(=O)[C@@H]1CCC(=O)N1)[C@@H](C)O)C(=O)N[C@@H](CC(=O)O)C(=O)N[C@@H](Cc1ccccc1)C(N)=O (HELM PEPTIDE1{[Glp].Q.D.Y.T.G.W.M.D.F.[am]}$$$$V2.0)
[1]; [7]
  Yield (%) of sulfated tyrosylpeptide: 4.8%

## Nc1ncnc2c1ncn2[C@@H]1O[C@H](COP(=O)(O)OS(=O)(=O)O)[C@@H](OP(=O)(O)O)[C@H]1O [3'-phosphoadenosine-5'-phosphosulfate]
[2]; in words
  utilization as a sulfate donor: does not utilize
[2]
  Activity (%) as sulfate donor: 0%

## Cc1cc(=O)oc2cc(O)ccc12 [4-methylumbelliferone]
[1]; [8]
  Activity (%) as sulfate acceptor: 86%

## Cc1cc(=O)oc2cc(OS(=O)(=O)O)ccc12 [4-methylumbelliferyl sulfate]
[2]
  Activity (%) as sulfate donor: 46%

## O=C(O)CN(CCN(CC(=O)O)CC(=O)O)CC(=O)O [EDTA]
Clostridium innocuum AST
  Effectors: effect on enzyme activity: no effect

## CC[C@H](C)[C@H](NC(=O)[C@H](Cc1ccc(O)cc1)NC(=O)[C@@H](NC(=O)[C@H](CCCNC(=N)N)NC(=O)[C@@H](N)CC(=O)O)C(C)C)C(=O)N[C@@H](Cc1cnc[nH]1)C(=O)N1CCC[C@H]1C(=O)N[C@@H](Cc1ccccc1)C(=O)N[C@@H](Cc1cnc[nH]1)C(=O)N[C@@H](CC(C)C)C(=O)O [angiotensin I] (H-DRVYIHPFHL-OH)
[1]; [7]
  Yield (%) of sulfated tyrosylpeptide: 8.8%

## NC(=O)CC[C@@H]1NC(=O)[C@H](Cc2ccccc2)NC(=O)[C@H](Cc2ccc(O)cc2)NC(=O)[C@@H](N)CSSC[C@@H](C(=O)N2CCC[C@H]2C(=O)N[C@@H](CCCN=C(N)N)C(=O)NCC(N)=O)NC(=O)[C@H](CC(N)=O)NC1=O [arg8 vasopressin]
[1]; [7]
  Yield (%) of sulfated tyrosylpeptide: 35.8%

## Oc1cc(O)c2c(c1)OC(c1ccc(O)c(O)c1)C(O)C2 (stereo not shown) [catechin]
[1]
  Activity (%) as sulfate acceptor: 150

## Oc1ccccc1O [catechol]
[1]
  Activity (%) as sulfate acceptor: 208

## CSCC[C@H](NC(=O)[C@H](Cc1ccc(O)cc1)NC(=O)[C@@H](N)CC(=O)O)C(=O)NCC(=O)N[C@@H](Cc1c[nH]c2ccccc12)C(=O)N[C@@H](CCSC)C(=O)N[C@@H](CC(=O)O)C(=O)N[C@@H](Cc1ccccc1)C(N)=O [cholecystokinin8, cholecystokinin-8]
[1]; Clostridium arylsulfotransferase, under conditions similar to the prior art
  yield of sulfation of CCK-8: ≥ 60%
[1]; [7]
  Yield (%) of sulfated tyrosylpeptide: 35.4%
[3]
  yield of sulfation of CCK-8: ≥ 45%
[4]
  highest reported yield of sulfated CCK-8: ~31.3%

## C[C@@H](NC(=O)[C@@H](N)Cc1ccc(O)cc1)C(=O)N[C@@H](Cc1ccccc1)C(=O)NCC(=O)N[C@@H](Cc1ccc(O)cc1)C(=O)N1CCC[C@H]1C(=O)N[C@@H](CO)C(N)=O [dermorphin]
[1]; [7]
  Yield (%) of sulfated tyrosylpeptide: 67.0%

## C[C@]12CC[C@@H]3c4ccc(OS(=O)(=O)O)cc4CC[C@H]3[C@@H]1CCC2=O [estrone sulfate]
[2]
  specific activity as donor substrate: about 17%
  Activity (%) as sulfate donor: 22%
[5]
  specific activity as donor substrate: about 3.4%

## O=S(=O)(O)Oc1c[nH]c2ccccc12 [indoxyl sulfate]
[2]
  specific activity as donor substrate: about 27%
  Activity (%) as sulfate donor: 35%
[5]
  specific activity as donor substrate: about 2.2%

## N=C(N)NCCC[C@H](NC(=O)[C@@H](N)Cc1ccc(O)cc1)C(=O)O [kyotorphin]
[1]; [7]
  Yield (%) of sulfated tyrosylpeptide: 16.8%

## CC(C)C[C@H](NC(=O)[C@H](Cc1ccccc1)NC(=O)CNC(=O)CNC(=O)[C@@H](N)Cc1ccc(O)cc1)C(=O)O [leu enkephalin]
[1]; [7]
  Yield (%) of sulfated tyrosylpeptide: 92.5%

## COC(=O)c1ccc(O)cc1 [methyl p-hydroxybenzoate]
[1]
  Activity (%) as sulfate acceptor: 65

## O=[N+]([O-])c1ccc(O)c(OS(=O)(=O)O)c1 [p-nitrocatechol sulfate]
[2]
  Activity (%) as sulfate donor: 196%

## Oc1ccccc1 [phenol]
[1]
  Activity (%) as sulfate acceptor: 194

## CSCC[C@H](NC(=O)[C@H](CC(C)C)NC(=O)CNC(=O)[C@H](Cc1ccc(O)cc1)NC(=O)[C@H](Cc1ccccc1)NC(=O)[C@H](CCCCN)NC(=O)[C@H](CC(N)=O)NC(=O)[C@@H]1CCCN1C(=O)[C@H](CC(=O)O)NC(=O)[C@H](C)NC(=O)[C@@H]1CCC(=O)N1)C(N)=O [physalaemin] (HELM PEPTIDE1{[Glp].A.D.P.N.K.F.Y.G.L.M.[am]}$$$$V2.0)
[1]; [7]
  Yield (%) of sulfated tyrosylpeptide: 10.5%

## CC(C)C[C@H](NC(=O)[C@H](Cc1ccc(O)cc1)NC(=O)[C@@H](N)CCCNC(=N)N)C(=O)N1CCC[C@H]1C(=O)N[C@H](C(=O)O)[C@@H](C)O [proctolin] (H-RYLPT-OH)
[1]; [7]
  Yield (%) of sulfated tyrosylpeptide: 19.8%

## NCCc1ccc(O)cc1 [tyramine, 4-hydroxyphenethylamine]
[6]
  Km: 1630 µM
[1]; [8]
  Activity (%) as sulfate acceptor: 100%

## COC(=O)[C@@H](N)Cc1ccc(O)cc1 [tyrosine methyl ester]
[1]; [8]
  Activity (%) as sulfate acceptor: 59%

## N[C@@H](Cc1ccc(O)cc1)C(=O)O [tyrosine]
[1]
  Activity (%) as sulfate acceptor: 13

## hirudin (54-65) (GDFEEIPEEYLQ) [Gly-Asp-Phe-Glu-Glu-lle-Pro-Glu-Glu-Tyr-Leu-Gin]
[1]; [7]
  Yield (%) of sulfated tyrosylpeptide: 7.7%

## phenolphthalein sulfate
[2]
  Activity (%) as sulfate donor: 12%
